From article PMC11297040, “Engineering of a mammalian VMAT2 for cryo-EM analysis results in non-canonical protein folding” (Nature Communications, 2024)

Legend:
OaVMAT2WT = target: T1, OaVMAT2WT (Ovis aries, UniProt A0A6P7DBQ8); assay: microscale thermophoresis (RED-Tris-NTA labelled protein); type: binding
T1 construct: gene JEQ12_011695; full-length wild type; N-terminal His10-BRIL-TEV and C-terminal TEV-BRIL-His10 tags, released by TEV cleavage (called His-tagged in MST); Pichia pastoris GS115; DDM; monomer on crosslinking
T1 sequence (A0A6P7DBQ8 1-517): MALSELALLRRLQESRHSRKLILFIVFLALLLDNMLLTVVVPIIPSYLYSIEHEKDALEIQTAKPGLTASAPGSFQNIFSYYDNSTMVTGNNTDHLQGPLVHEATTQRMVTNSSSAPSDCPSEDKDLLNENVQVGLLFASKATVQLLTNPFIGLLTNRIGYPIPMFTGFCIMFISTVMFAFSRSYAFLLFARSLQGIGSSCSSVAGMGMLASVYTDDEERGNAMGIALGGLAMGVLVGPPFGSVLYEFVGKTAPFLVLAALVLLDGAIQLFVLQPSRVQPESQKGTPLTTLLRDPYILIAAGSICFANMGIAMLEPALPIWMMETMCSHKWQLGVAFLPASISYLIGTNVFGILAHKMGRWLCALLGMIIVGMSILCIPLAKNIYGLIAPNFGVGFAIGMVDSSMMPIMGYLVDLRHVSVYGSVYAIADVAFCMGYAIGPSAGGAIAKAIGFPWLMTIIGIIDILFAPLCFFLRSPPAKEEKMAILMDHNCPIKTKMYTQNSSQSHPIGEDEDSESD

XlVMAT2WT = target: T2, XlVMAT2WT (Xenopus laevis, UniProt A0A1L8FIB7); assay: as above; type: binding
T2 construct: gene LOC108696020; full-length wild type, 514 residues, monomer; N-terminal His10-BRIL-TEV and C-terminal TEV-BRIL-His10 tags, released by TEV cleavage (called His-tagged in MST); Pichia pastoris GS115; DDM
T2 sequence (A0A1L8FIB7 1-514): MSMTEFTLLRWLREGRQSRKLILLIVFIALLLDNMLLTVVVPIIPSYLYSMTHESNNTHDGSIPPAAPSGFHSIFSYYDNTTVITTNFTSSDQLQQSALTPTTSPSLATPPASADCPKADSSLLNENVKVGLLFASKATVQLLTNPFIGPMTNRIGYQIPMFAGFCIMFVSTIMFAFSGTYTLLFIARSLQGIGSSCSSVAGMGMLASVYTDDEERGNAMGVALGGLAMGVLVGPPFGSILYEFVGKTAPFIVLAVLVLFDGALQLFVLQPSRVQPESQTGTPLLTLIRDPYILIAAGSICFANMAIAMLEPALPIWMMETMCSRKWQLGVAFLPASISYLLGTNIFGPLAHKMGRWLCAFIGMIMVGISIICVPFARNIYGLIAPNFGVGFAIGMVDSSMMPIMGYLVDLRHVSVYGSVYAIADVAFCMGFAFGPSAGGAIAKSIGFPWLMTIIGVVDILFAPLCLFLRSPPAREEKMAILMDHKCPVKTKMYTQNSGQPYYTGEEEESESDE

HsVMAT2 [1] = target: T3, HsVMAT2 (Homo sapiens, UniProt Q05940); assay: as above; type: binding
T3 construct: gene SLC18A2; full-length; N-terminal His10-BRIL-TEV and C-terminal TEV-BRIL-His10 tags, released by TEV cleavage (called His-tagged in MST); Pichia pastoris GS115; DDM
T3 sequence (Q05940 whole entry): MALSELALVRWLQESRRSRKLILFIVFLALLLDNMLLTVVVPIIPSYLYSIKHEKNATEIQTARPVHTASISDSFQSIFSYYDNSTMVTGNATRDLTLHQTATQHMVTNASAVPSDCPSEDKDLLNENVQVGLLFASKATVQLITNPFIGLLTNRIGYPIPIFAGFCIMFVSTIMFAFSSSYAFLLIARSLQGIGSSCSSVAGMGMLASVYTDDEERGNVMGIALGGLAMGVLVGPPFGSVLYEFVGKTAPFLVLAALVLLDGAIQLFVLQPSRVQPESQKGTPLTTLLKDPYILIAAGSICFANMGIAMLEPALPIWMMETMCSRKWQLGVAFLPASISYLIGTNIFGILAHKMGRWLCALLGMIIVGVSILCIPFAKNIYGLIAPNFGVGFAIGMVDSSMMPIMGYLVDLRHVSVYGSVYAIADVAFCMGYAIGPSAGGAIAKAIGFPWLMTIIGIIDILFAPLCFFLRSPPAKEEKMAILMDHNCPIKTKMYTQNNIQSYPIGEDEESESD
Description: microscale thermophoresis (RED-Tris-NTA labelled protein) on HsVMAT2 | MST fitting curves of SER binding to HsVMAT2 WT and variants as indicated

HsVMAT2 [2] = target: T4, HsVMAT2 (Homo sapiens, UniProt Q05940, D399A); assay: as above; type: binding
T4 construct: gene SLC18A2; full-length; N-terminal His10-BRIL-TEV and C-terminal TEV-BRIL-His10 tags, released by TEV cleavage (called His-tagged in MST); Pichia pastoris GS115; DDM
T4 sequence (Q05940 whole entry D399A): as the sequence (Q05940 whole entry) above, with D399A counted along it

HsVMAT2 [3] = target: T5, HsVMAT2 (Homo sapiens, UniProt Q05940, L228A); assay: as above; type: binding
T5 construct: gene SLC18A2; full-length; N-terminal His10-BRIL-TEV and C-terminal TEV-BRIL-His10 tags, released by TEV cleavage (called His-tagged in MST); Pichia pastoris GS115; DDM
T5 sequence (Q05940 whole entry L228A): as the sequence (Q05940 whole entry) above, with L228A counted along it
Description: (§1) microscale thermophoresis (RED-Tris-NTA labelled protein) on HsVMAT2 | L228A, V232A, E312A, Y341A, D399A and Y433A, reduced their binding affinities for serotonin

HsVMAT2 [4] = target: T6, HsVMAT2 (Homo sapiens, UniProt Q05940, V232A); assay: as above; type: binding
T6 construct: gene SLC18A2; full-length; N-terminal His10-BRIL-TEV and C-terminal TEV-BRIL-His10 tags, released by TEV cleavage (called His-tagged in MST); Pichia pastoris GS115; DDM
T6 sequence (Q05940 whole entry V232A): as the sequence (Q05940 whole entry) above, with V232A counted along it
Description: as §1

HsVMAT2 [5] = target: T7, HsVMAT2 (Homo sapiens, UniProt Q05940, Y341A); assay: as above; type: binding
T7 construct: gene SLC18A2; full-length; N-terminal His10-BRIL-TEV and C-terminal TEV-BRIL-His10 tags, released by TEV cleavage (called His-tagged in MST); Pichia pastoris GS115; DDM
T7 sequence (Q05940 whole entry Y341A): as the sequence (Q05940 whole entry) above, with Y341A counted along it
Description: as §1

HsVMAT2 [6] = target: T8, HsVMAT2 (Homo sapiens, UniProt Q05940, Y433A); assay: as above; type: binding
T8 construct: gene SLC18A2; full-length; N-terminal His10-BRIL-TEV and C-terminal TEV-BRIL-His10 tags, released by TEV cleavage (called His-tagged in MST); Pichia pastoris GS115; DDM
T8 sequence (Q05940 whole entry Y433A): as the sequence (Q05940 whole entry) above, with Y433A counted along it
Description: as §1

[7] = target: OaVMAT2_(TM8/9-BRIL): sheep (Ovis aries) VMAT2 with the TM8/9 loop replaced by BRIL (Ovis aries | not stated); assay: cryo-EM structure; single-particle analysis of OaVMAT2_(TM8/9-BRIL) in 20 mM Tris-HCl pH 7.5, 150 mM NaCl, 5 mM beta-mercaptoethanol, 0.4 mM DDM; C2 symmetry imposed; 3.2 A
[8] = target: OaVMAT2_(TM8/9-BRIL): sheep (Ovis aries) VMAT2 with the TM8/9 loop replaced by BRIL (Ovis aries | not stated); assay: cross-linking; ~10 ug purified protein in 20 mM HEPES-Na pH 7.5, 150 mM NaCl, 5 mM beta-mercaptoethanol, 0.4 mM DDM; glutaraldehyde 4, 2 and 1 mM, 10 min, room temperature; SDS-PAGE

| Compound | Kd (OaVMAT2WT) [nM] | Kd (XlVMAT2WT) [nM] | Kd (HsVMAT2 [1]) [nM] | Kd (HsVMAT2 [2]) [nM] | Kd (HsVMAT2 [3]) [nM] | Kd (HsVMAT2 [4]) [nM] | Kd (HsVMAT2 [5]) [nM] | Kd (HsVMAT2 [6]) [nM] | stoichiometry N [7] | stoichiometry N [8] |
| --- | --- | --- | --- | --- | --- | --- | --- | --- | --- | --- |
| COC(=O)[C@H]1[C@H]2C[C@@H]3c4[nH]c5cc(OC)ccc5c4CCN3C[C@H]2C[C@@H](OC(=O)c2cc(OC)c(OC)c(OC)c2)[C@@H]1OC [reserpine] | 16 ± 5.7 | 17 ± 8.8 | – | – | – | – | – | – | – | – |
| NCCc1c[nH]c2ccc(O)cc12 [serotonin] | 210 ± 60 | 430 ± 220 | 450 ± 50 | 22100 ± 3600 | 3150 ± 550 | 3850 ± 1610 | 810 ± 220 | 3910 ± 1300 | – | – |
| OaVMAT2_(TM8/9-BRIL): sheep (Ovis aries) VMAT2 with the TM8/9 loop replaced by BRIL | – | – | – | – | – | – | – | – | 2 | 2 |
